Source: patent publication US9833520B2, “Labeled, non-peptidic, multivalent integrin antagonist compounds; methods for synthesis and uses thereof” (The Methodist Hospital Research Institute, priority 2011, dated 2017)
“Also recorded” adds a separate entry of the source. Where two headings read alike, the source gives them in different places.

Experiments:
[1] = target: T1, purified human αvβ3 (Homo sapiens, UniProt P05106+P06756); experiment: ELISA: competitive inhibition of biotinylated vitronectin binding to immobilized purified integrin αvβ3; conditions: for in vitro measured IC50 increase from IA-monomer: compared to IA-monomer
T1 construct: purchased Chemicon International, Temecula, Calif., USA
Description: In vitro Binding Assay. […] Purified integrin αvβ3 protein (Chemicon International, Temecula, Calif., USA) was applied to 96-well polystyrene microtiter plates at 0.1 μg/well. After overnight incubation at 4° C., the plates were washed, and then blocked with milk solution (KPL, Inc. Gaithersburg, Md., USA) at room temperature for 2 hr. The blocking buffer was removed, and the plates were inoculated in quadruplicate with bivalent IAs with a typical starting concentration of 125 nM. Serial dilutions were prepared in the 96-well plates using multichannel pipettes. Biotinylated vitronectin solution (0.1 μg/well) was added to each well as a standard competitor. The plates were incubated at room temperature for 3 h, washed, and the bound vitronectin was detected using NeutrAvidin-HRP conjugate at 0.01 μg/well (Pierce, Rockford, Ill., USA) and LumiGlo® chemiluminescent substrate system (KPL, Inc.). The luminescence was read using a FLUOstar™ OPTIMA Microplate Reader (Durham, N.C., USA). […] (Peptides International, Inc., Louisville, Ky., USA) was also tested using the same method as described above.
Briefly, purified integrin αvβ3 protein (Chemicon International, Temecula, Calif., USA) was applied to 96-well polystyrene microtiter plates for overnight incubation at 4° C. The plates were washed and then blocked with milk solution (KPL, Inc., Gaithersburg, Md., USA) and the plates were inoculated in quadruplicate with multivalent IAs at different concentrations. Biotinylated vitronectin solution was added to each well as a standard competitor. The plates were incubated at room temperature, washed, and the bound vitronectin detected using NeutrAvidin-HRP® conjugate (Pierce, Rockford, Ill., USA) and LumiGlo® chemiluminescent substrate system (KPL, Inc., Gaithersburg, Md., USA). The luminescence was read using a FLUOstar® OPTIMA Microplate Reader (Durham, N.C., USA).
In vitro Binding Affinity Assay. Purified integrin αvβ3 protein (Chemicon International, Temecula, Calif., USA) was applied to 96-well polystyrene microtiter plates at 1 μg/well. After overnight incubation at 4° C., the plates were washed and then blocked with milk solution (KPL, Inc., Gaithersburg, Md., USA) at room temperature for 2 hr. The blocking buffer was removed, and the plates were inoculated in quadruplicate with bivalent IAs with a typical starting concentration of 125 nM. Serial dilutions were prepared in the 96-well plates using multichannel pipettes. Biotinylated vitronectin solution (0.1 μg/well) was added to each well as a standard competitor.
The plates were incubated at room temperature for 3 hr, washed, and the bound vitronectin was detected using NeutrAvidin-HRP conjugate at 0.01 μg/well (Pierce, Rockford, Ill., USA) and LumiGlo® chemiluminescent substrate system (KPL, Inc.). The luminescence was read using a FLUOstar OPTIMA Microplate Reader (Durham, N.C., USA). […] It measured competitive binding of the integrin antagonist and biotinylated human vitronectin for the immobilized receptor αvβ3.

[2] = tested on: HUVECs; experiment: In vitro cytotoxicity (MTT) assay, HUVECs; assay type: cell-based, human; conditions: 1 μg/mL to 100 μg/mL, 24 hr
Description: For cell cytotoxicity assay, the cells were then seeded into 96-well flat-bottomed tissue-culture plates at 1×10^4 cells/well and incubated for 24 hr in humidified atmosphere of 5% (vol./vol.) CO2 at 37° C. in the presence of each compound. The multivalent compound (monomer, dimer, and trimer) sample solutions were diluted with culture medium (1% FBS added) to obtain concentrations in the range of 0.1-100 μg/mL for each compound. The cytotoxic effects of monomer, dimer and trimer compounds were evaluated by adding 100 μL of each sample in 100 μL culture medium to each well. After 24-hrs' incubation, cell viability was evaluated by mitochondrial conversion of 3-(4,5-dimethylthiazol-2-yl)-2,5-diphenyl tetrazolium bromide (MTT assay) (Allison et al., 1985).

[3] = tested on: HUVECs; experiment: Anti-angiogenic in vitro assay: endothelial tube formation on Matrigel; assay type: cell-based, human; conditions: 10 μg/mL, 6 hr
Description: The impact of IA derivatives on capillary-like tube formation by HUVECs was investigated. In vitro endothelial tube formation was performed as described in the literature (Park et al., 2007). Growth factor reduced Matrigel® (100 μL, BD Bioscience, San Jose, Calif., USA) was added to each well of a 96-well plate and allowed to polymerize for 30 min at 37° C. HUVECs were suspended in medium at the density of 4×10^5 cells per milliliter, and 100 μL of the cell suspension was added to each Matrigel-coated well in the presence of IA monomer, dimer and trimer. Cells were incubated at 37° C. for 6 hr, and then photographed at 20× magnification using a Micromaster® phase contrast microscope (Fisher Scientific, Pittsburgh, Pa., USA). The branch points were counted and averaged.

[4] = tested on: U-87 MG (ATCC HTB-14) glioblastoma cells over-expressing integrin αvβ3; experiment: Fluorescence microscopy probe binding assay in U-87 cells; assay type: cell-based, human; conditions: blocking dose 20 μmol/L
Description: Fluorescence Microscopy Studies. […] For fluorescence microscopy studies, 1×10^4 U-87 cells were cultured on 35 mm MatTek glass bottom culture dishes. After 24 hr, cells were washed with PBS and then incubated with bivalent-IA-Cy5.5 (200 nM) at 37° C. for 45 min. Integrin specificity of the probe binding was verified by incubating U-87 cells with and without a blocking dose of the non-fluorescent bivalent IA (20 μmol/L). After the incubation period, the cells were washed three times with ice-cold PBS. The fluorescence signal of the cells was recorded using FluoView® 1000 Laser Scanning Confocal Microscope (Olympus, Center Valley, Pa., USA) under a 40× oil-immersion objective, with laser excitation at 675 nm (Cy5.5). A differential interference contrast image was also recorded so that the origin of fluorescent signals could be confirmed.

[5] = monomer/dimer/trimer study, FIG. 28, Table 5, read-out: IC50 (nM) ELISA
[6] = Example 1 bivalent IA study, FIG. 4, read-out: IC50 of vitronectin binding to αvβ3 (ELISA)

Question: For `O=C(NCCS(=O)(=O)N[C@@H](CNC(=O)c1ccc(OCCNC2=NCCCN2)cc1)C(=O)O)OCCN(CCOC(=O)NCCS(=O)(=O)N[C@@H](CNC(=O)c1ccc(OCCNC2=NCCCN2)cc1)C(=O)O)CCOC(=O)NCCS(=O)(=O)N[C@@H](CNC(=O)c1ccc(OCCNC2=NCCCN2)cc1)C(=O)O` [IA trimer], which “increase in IC50 from the dimer to trimer” value ([1]; compared to IA dimer) is on record?
Answer: Its value is 2 fold.

Question: What about the “in vitro measured IC50 increase from IA-monomer” value [1] of the same molecule?
Answer: The value was 56 fold.

Question: And the IC50 [1, 5]?
Answer: Its IC50 is 0.22 nM.

Question: What about the “cytotoxicity on HUVEC cells” value [2] of the same molecule?
Answer: Its value is “increased cytotoxicity over the IA-monomer and dimer”.

Question: What about the “number of tube branches (control group 100%)” value [3] of the same molecule?
Answer: The value was 35.6±1.0%.

Question: For `NCCS(=O)(=O)N[C@@H](CNC(=O)c1ccc(OCCNC2=NCCCN2)cc1)C(=O)O` [IA, 4-[2-(3,4,5,6-tetrahydropyrimidine-2-ylamino)ethyloxy]benzoyl-2-(S)-aminoethylsulfonyl-amino-β-alanine], which IC50 [1, 6] is on record?
Answer: The IC50 was 22.3 ± 4.51 nM.

Question: What about the IC50 ([1]; Example 2, PEG-linked ligands, averages of at least three determinations, read-out: In vitro EL1SA IC50) of the same molecule?
Answer: Its IC50 is 22.3 nM.

Question: What about the IC50 [1, 5] of the same molecule?
Answer: The IC50 was 11 nM.

Question: And the “number of tube branches (control group 100%)” value [3]?
Answer: The value was 86.6±3.4%.

Question: What does the source list for `NC(CCCCCC(=O)NCCS(=O)(=O)N[C@@H](CNC(=O)c1ccc(OCCNC2=NCCCN2)cc1)C(=O)O)C(=O)NCCS(=O)(=O)N[C@@H](CNC(=O)c1ccc(OCCNC2=NCCCN2)cc1)C(=O)O` (stereo partly shown) [bivalent IA]?
Answer: integrin αvβ3 binding affinity compared to monomer [1]: significantly higher integrin avb3-binding affinity and specificity than IA monomer; IC50 [1, 6]: 0.4 ± 0.11 nM; in vitro measured IC50 increase from IA-monomer [1]: 28 fold; improvement in receptor affinity (IC50) over c-[RGDfV] ([1]; compared to c-[RGDfV]): 10 fold; IC50 [1, 5]: 0.44 nM; blocking of bivalent-IA-Cy5.5 binding/endocytosis in U-87 cells [4]: complete blockage of endocytosis of the imaging probes; also recorded: effectively blocked; number of tube branches (control group 100%) [3]: 68.3±2.6%
